From patent US9322066B2, “Predictors for cancer treatment” (priority 2011, dated 2016)

Test system: relapsed or refractory, rituximab-naive or -sensitive follicular B-cell NHL
Experiment: Time to next anti-lymphoma therapy, Vc-R vs rituximab study, by biomarker
Type: in vivo, human
Design: Median, Time to Next Anti-Lymphoma Therapy / Time to Next Anti-Lymphoma Therapy, Median: unit not given here
Text: Non-Hodgkin lymphoma (NHL) encompasses several unique malignant lymphoid disease entities that vary in clinical behavior, morphologic appearance, immunologic, and molecular phenotype. […] A randomized, open-label, active-controlled, multicenter, multinational, prospective study to compare the efficacy and safety of the combination of bortezomib and rituximab (Vc-R) to single-agent rituximab in subjects who have relapsed or refractory, rituximab-naive or -sensitive follicular B-cell NHL was performed.
Subjects were centrally randomized to Treatment Groups A (Vc-R) or B (rituximab) in a 1:1 ratio taking into account the following stratification factors: • Follicular Lymphoma International Prognostic Index (FLIPI) score (low [0 or 1 factor], intermediate [2 factors], high [≧3 factors]); • Prior rituximab therapy (yes, no); • Time since last dose of anti-lymphoma therapy (≦1 year, >1 year); • Region (United States/Canada, European Union, Rest of World).
The following clinical endpoints were included in the analysis within each treatment group and an overall comparison was made with the biomarker-related endpoints: Progression-free survival, defined as the interval between the date of randomization and the date of progressive disease (PD) or death, whichever is first reported in the ITT population; overall survival; overall response rate (complete response [CR]+CR unconfirmed [CRu]+partial response [PR]); overall CR rate (CR+CRu); duration of response; time to next anti-lymphoma therapy; and treatment free interval.

[1] = PSMB5/L206M: C/C, High Tumor Burden
[2] = PSMB5/L206M: C/C, ≦65 years old
[3] = PSMB5/R24C: C/C, >1 year since last anti-lymphoma treatment
[4] = PSMB5/R24C: C/T, Ann Arbor Stage IV
[5] = PSMB5/R24C: C/T, High Tumor Burden
[6] = PSMB6/A234D: C/C, >1 year since last anti-lymphoma treatment
[7] = PSMB6/A234D: C/C, Ann Arbor Stage IV
[8] = PSMB6/A234D: C/C, European Union
[9] = PSMB6/A234D: C/C, High Tumor Burden
[10] = PSMB6/A234D: C/C, ≦65 years old
[11] = PSMB6/P107A: C/C, >1 year since last anti-lymphoma treatment
[12] = PSMB6/P107A: C/C, Ann Arbor Stage IV
[13] = PSMB6/P107A: C/C, High Tumor Burden
[14] = PSMB6/P107A: C/C, ≦65 years old
[15] = PSMB8/G8R: G/G, >1 year since last anti-lymphoma treatment
[16] = PSMB8/G8R: G/G, Ann Arbor Stage IV
[17] = PSMB8/G8R: G/G, High Tumor Burden
[18] = PSMB8/R141C: C/C, >1 year since last anti-lymphoma treatment
[19] = PSMB8/R141C: C/C, Ann Arbor Stage IV
[20] = PSMB8/R141C: C/C, European Union
[21] = PSMB8/R141C: C/C, High Tumor Burden
[22] = PSMB8/R141C: C/C, ≦65 years old
[23] = PSMB8/V182M: G/G, >1 year since last anti-lymphoma treatment
[24] = PSMB8/V182M: G/G, Ann Arbor Stage IV
[25] = PSMB8/V182M: G/G, European Union
[26] = PSMB8/V182M: G/G, High Tumor Burden
[27] = PSMB8/V182M: G/G, ≦65 years old
[28] = PSMB9/G9E: G/G, >1 year since last anti-lymphoma treatment
[29] = PSMB9/G9E: G/G, Ann Arbor Stage IV
[30] = PSMB9/G9E: G/G, High Tumor Burden
[31] = PSMB9/V32I: C/C, 5 Prior Lines of Therapy
[32] = PSMB9/V32I: C/C, >1 year since last anti-lymphoma treatment
[33] = PSMB9/V32I: C/C, Ann Arbor Stage IV
[34] = PSMB9/V32I: C/C, High Tumor Burden

rituximab
Time to Next Anti-Lymphoma Therapy, Median (PSMB5/L206M: C/C, European Union): 675
Time to Next Anti-Lymphoma Therapy, Evt/N [1]: 108/147
Time to Next Anti-Lymphoma Therapy, Median [1]: 396
Time to Next Anti-Lymphoma Therapy, Evt/N (PSMB5/L206M: C/C, No Subgroup): 173/276
Time to Next Anti-Lymphoma Therapy, Median (PSMB5/L206M: C/C, No Subgroup): 546
Time to Next Anti-Lymphoma Therapy, Evt/N [2]: 130/198
Time to Next Anti-Lymphoma Therapy, Median [2]: 489
Time to Next Anti-Lymphoma Therapy, Evt/N [3]: 81/137
Time to Next Anti-Lymphoma Therapy, Median [3]: 649
Time to Next Anti-Lymphoma Therapy, Evt/N (PSMB5/R24C: C/C, No Subgroup): 147/235
Time to Next Anti-Lymphoma Therapy, Median (PSMB5/R24C: C/C, No Subgroup): 546
Time to Next Anti-Lymphoma Therapy, Evt/N (PSMB5/R24C: C/C, ≦65 years old): 113/170
Time to Next Anti-Lymphoma Therapy, Median (PSMB5/R24C: C/C, ≦65 years old): 489
Time to Next Anti-Lymphoma Therapy, Evt/N [4]: 11/15
Time to Next Anti-Lymphoma Therapy, Median [4]: 421
Time to Next Anti-Lymphoma Therapy, Evt/N [5]: 19/21
Time to Next Anti-Lymphoma Therapy, Median [5]: 317
Time to Next Anti-Lymphoma Therapy, Evt/N [6]: 98/165
Time to Next Anti-Lymphoma Therapy, Median [6]: 688
Time to Next Anti-Lymphoma Therapy, Evt/N [7]: 86/127
Time to Next Anti-Lymphoma Therapy, Median [7]: 457
Time to Next Anti-Lymphoma Therapy, Evt/N [8]: 75/119
Time to Next Anti-Lymphoma Therapy, Median [8]: 675
Time to Next Anti-Lymphoma Therapy, Evt/N [9]: 108/147
Time to Next Anti-Lymphoma Therapy, Median [9]: 396
Time to Next Anti-Lymphoma Therapy, Evt/N (PSMB6/A234D: C/C, No Subgroup): 173/276
Time to Next Anti-Lymphoma Therapy, Median (PSMB6/A234D: C/C, No Subgroup): 546
Time to Next Anti-Lymphoma Therapy, Evt/N [10]: 130/198
Time to Next Anti-Lymphoma Therapy, Median [10]: 489
Time to Next Anti-Lymphoma Therapy, Evt/N [11]: 95/159
Time to Next Anti-Lymphoma Therapy, Median [11]: 702
Time to Next Anti-Lymphoma Therapy, Evt/N [12]: 84/124
Time to Next Anti-Lymphoma Therapy, Median [12]: 485
Time to Next Anti-Lymphoma Therapy, Evt/N [13]: 104/140
Time to Next Anti-Lymphoma Therapy, Median [13]: 380
Time to Next Anti-Lymphoma Therapy, Evt/N (PSMB6/P107A: C/C, No Subgroup): 167/265
Time to Next Anti-Lymphoma Therapy, Median (PSMB6/P107A: C/C, No Subgroup): 550
Time to Next Anti-Lymphoma Therapy, Evt/N [14]: 125/189
Time to Next Anti-Lymphoma Therapy, Median [14]: 504
Time to Next Anti-Lymphoma Therapy, Evt/N [15]: 91/155
Time to Next Anti-Lymphoma Therapy, Median [15]: 702
Time to Next Anti-Lymphoma Therapy, Evt/N [16]: 80/120
Time to Next Anti-Lymphoma Therapy, Median [16]: 457
Time to Next Anti-Lymphoma Therapy, Evt/N (PSMB8/G8R: G/G, European Union): 70/111
Time to Next Anti-Lymphoma Therapy, Median (PSMB8/G8R: G/G, European Union): 649
Time to Next Anti-Lymphoma Therapy, Evt/N (PSMB8/G8R: G/G, Female): 94/160
Time to Next Anti-Lymphoma Therapy, Median (PSMB8/G8R: G/G, Female): 649
Time to Next Anti-Lymphoma Therapy, Evt/N [17]: 104/140
Time to Next Anti-Lymphoma Therapy, Median [17]: 374
Time to Next Anti-Lymphoma Therapy, Evt/N (PSMB8/G8R: G/G, No Subgroup): 165/264
Time to Next Anti-Lymphoma Therapy, Median (PSMB8/G8R: G/G, No Subgroup): 537
Time to Next Anti-Lymphoma Therapy, Evt/N (PSMB8/G8R: G/G, ≦65 years old): 123/189
Time to Next Anti-Lymphoma Therapy, Median (PSMB8/G8R: G/G, ≦65 years old): 504
Time to Next Anti-Lymphoma Therapy, Evt/N [18]: 98/165
Time to Next Anti-Lymphoma Therapy, Median [18]: 688
Time to Next Anti-Lymphoma Therapy, Evt/N [19]: 86/127
Time to Next Anti-Lymphoma Therapy, Median [19]: 457
Time to Next Anti-Lymphoma Therapy, Evt/N [20]: 75/119
Time to Next Anti-Lymphoma Therapy, Median [20]: 675
Time to Next Anti-Lymphoma Therapy, Evt/N [21]: 108/147
Time to Next Anti-Lymphoma Therapy, Median [21]: 396
Time to Next Anti-Lymphoma Therapy, Evt/N (PSMB8/R141C: C/C, No Subgroup): 173/276
Time to Next Anti-Lymphoma Therapy, Median (PSMB8/R141C: C/C, No Subgroup): 546
Time to Next Anti-Lymphoma Therapy, Evt/N [22]: 130/198
Time to Next Anti-Lymphoma Therapy, Median [22]: 489
Time to Next Anti-Lymphoma Therapy, Evt/N [23]: 98/165
Time to Next Anti-Lymphoma Therapy, Median [23]: 688
Time to Next Anti-Lymphoma Therapy, Evt/N [24]: 86/127
Time to Next Anti-Lymphoma Therapy, Median [24]: 457
Time to Next Anti-Lymphoma Therapy, Evt/N [25]: 75/119
Time to Next Anti-Lymphoma Therapy, Median [25]: 675
Time to Next Anti-Lymphoma Therapy, Evt/N [26]: 108/147
Time to Next Anti-Lymphoma Therapy, Median [26]: 396
Time to Next Anti-Lymphoma Therapy, Evt/N (PSMB8/V182M: G/G, No Subgroup): 173/276
Time to Next Anti-Lymphoma Therapy, Median (PSMB8/V182M: G/G, No Subgroup): 546
Time to Next Anti-Lymphoma Therapy, Evt/N [27]: 130/198
Time to Next Anti-Lymphoma Therapy, Median [27]: 489
Time to Next Anti-Lymphoma Therapy, Evt/N [28]: 97/163
Time to Next Anti-Lymphoma Therapy, Median [28]: 688
Time to Next Anti-Lymphoma Therapy, Evt/N [29]: 86/126
Time to Next Anti-Lymphoma Therapy, Median [29]: 457
Time to Next Anti-Lymphoma Therapy, Evt/N (PSMB9/G9E: G/G, European Union): 75/119
Time to Next Anti-Lymphoma Therapy, Median (PSMB9/G9E: G/G, European Union): 675
Time to Next Anti-Lymphoma Therapy, Evt/N [30]: 107/145
Time to Next Anti-Lymphoma Therapy, Median [30]: 396
Time to Next Anti-Lymphoma Therapy, Evt/N (PSMB9/G9E: G/G, No Subgroup): 172/274
Time to Next Anti-Lymphoma Therapy, Median (PSMB9/G9E: G/G, No Subgroup): 546
Time to Next Anti-Lymphoma Therapy, Evt/N (PSMB9/G9E: G/G, ≦65 years old): 129/196
Time to Next Anti-Lymphoma Therapy, Median (PSMB9/G9E: G/G, ≦65 years old): 489
Time to Next Anti-Lymphoma Therapy, Evt/N (PSMB9/R60H: A/G, Male): 22/28
Time to Next Anti-Lymphoma Therapy, Median (PSMB9/R60H: A/G, Male): 380
Time to Next Anti-Lymphoma Therapy, Evt/N [31]: 7/8
Time to Next Anti-Lymphoma Therapy, Median [31]: 228
Time to Next Anti-Lymphoma Therapy, Evt/N [32]: 96/160
Time to Next Anti-Lymphoma Therapy, Median [32]: 649
Time to Next Anti-Lymphoma Therapy, Evt/N [33]: 84/123
Time to Next Anti-Lymphoma Therapy, Median [33]: 457
Time to Next Anti-Lymphoma Therapy, Evt/N [34]: 106/142
Time to Next Anti-Lymphoma Therapy, Median [34]: 396
Time to Next Anti-Lymphoma Therapy, Evt/N (PSMB9/V32I: C/C, ≦65 years old): 127/192
Time to Next Anti-Lymphoma Therapy, Median (PSMB9/V32I: C/C, ≦65 years old): 489
